In PubChem BioAssay AID463203 (Broad Institute, 2010):
The source made the active and inactive calls.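 Rule for the calls: active = more than half of replicate measurements showing over 20% loss of kinase signal relative to plate controls; inconclusive = some but at most half of replicates over 20% loss; inactive = no replicate over 20% signal loss.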

These molecules were tested against Glycogen synthase kinase-3 alpha (Homo sapiens) (UniProt P49840) (assay: concentration-response blocking of human GSK3A – biochemical, luminescence, cell-free homogeneous, retest, dose response (AID 463203)). Details: GSK-3 alpha enzyme, ADP-Glo luminescence, 60 min.
Sequence of Glycogen synthase kinase-3 alpha (Homo sapiens) (P49840 whole entry, looked up): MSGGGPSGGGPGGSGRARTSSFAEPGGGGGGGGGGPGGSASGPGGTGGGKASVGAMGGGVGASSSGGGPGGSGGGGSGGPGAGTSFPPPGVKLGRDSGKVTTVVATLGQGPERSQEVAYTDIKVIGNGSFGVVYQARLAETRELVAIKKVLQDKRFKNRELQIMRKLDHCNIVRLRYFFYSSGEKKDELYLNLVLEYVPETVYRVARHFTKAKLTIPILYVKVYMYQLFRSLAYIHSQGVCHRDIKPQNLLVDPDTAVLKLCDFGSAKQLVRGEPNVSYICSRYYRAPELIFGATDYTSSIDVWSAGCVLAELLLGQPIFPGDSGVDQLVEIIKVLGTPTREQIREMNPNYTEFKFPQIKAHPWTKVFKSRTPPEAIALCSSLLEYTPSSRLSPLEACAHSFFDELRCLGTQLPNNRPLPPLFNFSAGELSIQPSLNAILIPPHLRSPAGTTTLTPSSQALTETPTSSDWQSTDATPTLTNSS

| Structure (SMILES) | AC50 |
| --- | --- |
| COc1cc2c(cc1OC)-c1c3c(cc4c1[C@@H](C2)N(C)CC4)OCO3 | 24.9 µM |
| COc1cc(/C=N/Nc2nc(=O)[nH]nc2C)cc([N+](=O)[O-])c1O | 22.1 µM |
| CN(C)Cc1c(C(=O)N/N=C/C=C/c2ccccc2)nnn1-c1nonc1N | 30 µM |
| NS(=O)(=O)c1ccc(NC(=O)CSc2nnc(-c3ccc(O)cc3)o2)cc1 | 4.93 µM |
| COc1ccc(/C=C2\Oc3cc(OCC(=O)N4CC(O)C[C@H]4C(=O)O)ccc3C2=O)cc1OC (some centres not stated) | > 30 µM (inactive) |
| CCSc1nc2sc3c(c2c(=O)n1-c1ccccc1C)CCN(C)C3 | > 30 µM (inactive) |
| Cc1oc2ccc(O)c(CN(C)C)c2c1C(=O)c1ccccc1 | > 30 µM (inactive) |
| S=C(NCc1ccccc1)NCc1ccc2c(c1)OCO2 | 14.2 µM |
| Cc1cccc(C)c1OC(=O)Cc1ccccc1 | > 30 µM (inactive) |
| CCOc1ccc(C2C3=C(CCCC3=O)Nc3ccc4ncccc4c32)cc1 (configuration not stated) | > 30 µM (inactive) |
| CC1CCC[C@H](O)CCCCCc2cc(O)cc(O)c2C(=O)O1 (some centres not stated) | > 30 µM (inactive) |
| COc1ccc(CC(=O)Nc2ccc(-c3cn4ccccc4n3)cc2)cc1OC | > 30 µM (inactive) |
| Cc1ccccc1C(=O)O/N=C(\N)c1cccc([N+](=O)[O-])c1 | > 30 µM (inactive) |
| O=C(Cn1c(NCCCO)nc2ccccc21)c1ccc([N+](=O)[O-])cc1 | > 30 µM (inactive) |
| O=c1c(O)c(-c2cc(O)c(O)c(O)c2)oc2cc(O)cc(O)c12 | 4.13 µM |
| O=C(Nc1nccs1)C1CCN(S(=O)(=O)c2cnc[nH]2)CC1 | > 30 µM (inactive) |
| COc1ccc(-c2cn3cccnc3n2)cc1NC(=O)CC(C)C | > 30 µM (inactive) |
| CCc1ccc(N2CC(C(=O)Nc3nccs3)CC2=O)cc1 (configuration not stated) | > 30 µM (inactive) |
| O=C(Cn1c(NCCO)nc2ccccc21)c1ccc([N+](=O)[O-])cc1 | > 30 µM (inactive) |
| CCOC(=O)c1[nH]c(C)c(C(=O)OCCOc2cccc(C)c2)c1C | > 30 µM (inactive) |
| Cc1nc(SCC(=O)NCC2CCCO2)c2c(C)c(C)sc2n1 (configuration not stated) | > 30 µM (inactive) |
| COc1cc(C2C(C#N)=C(N)Oc3n[nH]c(-c4cccnc4)c32)ccc1OCC(N)=O (configuration not stated) | > 30 µM (inactive) |
| Clc1ccc(/C=N/Nc2ncnc3ccccc23)cc1Cl | > 30 µM (inactive) |
| COc1ccc(/C=C2\Oc3cc(OCC(=O)N4CCC[C@H]4C(=O)O)ccc3C2=O)c(OC)c1 | > 30 µM (inactive) |
| Cc1cc(C)c(S(=O)(=O)Nc2ccnc(-c3cccnc3)n2)c(C)c1 | 5.52 µM |
| CC1(C)CC(=O)C(C2c3ccccc3S(=O)(=O)c3ccccc32)C(=O)C1 | > 30 µM (inactive) |

| Structure (SMILES) | AC50 |
| --- | --- |
| CCCCCCCCCCCCCCCC[N+](C)(C)CC | > 30 µM (inactive) |
| Cc1ccc(C2C(C#N)=C(N)Oc3nc(-c4ccccc4)[nH]c32)o1 (configuration not stated) | > 30 µM (inactive) |
| COc1ccc(S(=O)(=O)N[C@@H](CC(C)C)C(=O)O)cc1 | > 30 µM (inactive) |
| CCOc1ccc(S(=O)(=O)c2c(C(=O)c3ccc(C)cc3)cnc3cc4c(cc23)OCCO4)cc1 | > 30 µM (inactive) |
| O=C(O)CCNc1ccc(NCCC(=O)O)c2c1C(=O)c1ccccc1C2=O | 22.7 µM |
| COc1cc(/C=N/NC(=O)c2cccnc2)cc(Br)c1O | > 30 µM (inactive) |
| CC(C)CC(=O)Nc1ccc(-c2cn3cccnc3n2)cc1 | > 30 µM (inactive) |
| NCCNc1ccc([N+](=O)[O-])c(NC2CC2)c1 | > 30 µM (inactive) |
| O=C(COc1ccc(-n2cnnn2)cc1)Nc1ccc(F)c(F)c1F | > 30 µM (inactive) |
| COc1ccc(/C=C2\Oc3cc(OCC(=O)N4CC(O)C[C@H]4C(=O)O)ccc3C2=O)c(OC)c1OC (some centres not stated) | > 30 µM (inactive) |
| Cc1ccsc1C1C2=C(CC(C)(C)CC2=O)Nc2ncnn21 (configuration not stated) | 11.3 µM |
| Cc1sc(NC(=S)NC(=O)C(C)(C)C)c(C(N)=O)c1C | > 30 µM (inactive) |
| O=C(Nc1cccc(C(=O)N2CCOCC2)c1)c1cccnc1 | > 30 µM (inactive) |
| CCOC(=O)c1sc(NC(=O)C2CCC2)cc1C | > 30 µM (inactive) |
| c1ccc2sc(-c3ccc4c(c3)OCO4)nc2c1 | > 30 µM (inactive) |
| O=C(COc1ccccc1F)NC12CC3CC(CC(C3)C1)C2 | > 30 µM (inactive) |
| C/C(=N\NC(=O)c1nnn(-c2nonc2N)c1-c1ccccc1)c1cccnc1 | 18.3 µM |
| O=c1cc(-c2ccccc2Cl)oc2c(NS(=O)(=O)c3cc(Cl)cc(Cl)c3O)ccc(O)c12 | > 30 µM (inactive) |
| CCN(C(=O)CN1CCCC(C)C1)c1c(N)n(Cc2ccccc2)c(=O)[nH]c1=O (configuration not stated) | > 30 µM (inactive) |
| O=C(Nc1cccc(-c2cnc3ccccc3n2)c1)c1ccco1 | > 30 µM (inactive) |
| COc1ccc(C2NC(=O)NC(C)=C2C(=O)OCc2ccc3c(c2)OCO3)cc1OC (configuration not stated) | 10.2 µM |
| CCc1c(C)c(C#N)c2nc3ccccc3n2c1NCc1ccccn1 | 16.8 µM |
| Nc1nonc1-n1nnc(C(=O)N/N=C/c2ccco2)c1-c1ccccc1 | 18.5 µM |
| Nc1nonc1-n1nnc(C(=O)N/N=C/c2ccccc2Cl)c1-c1ccccc1 | > 30 µM (inactive) |
| COCCOC(=O)c1[nH]c2c(c1C)C(=O)CC(c1cc(OC)c(OC)c(OC)c1)C2 (configuration not stated) | > 30 µM (inactive) |
| Nc1nonc1-n1nnc(C(=O)N/N=C/c2cccc(Cl)c2)c1-c1cccs1 | 0.614 µM |

| Structure (SMILES) | AC50 |
| --- | --- |
| CCCCN(CC)C(=O)c1oc2ccc(S(=O)(=O)N3CCCC3)cc2c1C | > 30 µM (inactive) |
| CN(C)/C=C/c1c([N+](=O)[O-])c2ccc(O)cc2n1-c1ccccc1 | 2.08 µM |
| C[C@H](NC(=O)c1nc[nH]c1C(=O)NC1CCN(C(=O)OC(C)(C)C)CC1)C(=O)OC(C)(C)C | 31.3 µM |
| O=C(CCCN1C(=O)C2CCCCN2C1=O)N1CCN(c2ccc([N+](=O)[O-])cc2)CC1 (configuration not stated) | > 30 µM (inactive) |
| CCN1C(=O)/C(=C/c2cccs2)N(C)C1=S | > 30 µM (inactive) |
| Nc1nc(NCc2ccccc2)nc(NCc2ccccc2)c1[N+](=O)[O-] | > 30 µM (inactive) |
| Fc1cccc(Nc2ncnc3sccc23)c1 | > 30 µM (inactive) |
| COc1ccc(-c2cc(C(=O)N3CCN(c4ccccc4OC)CC3)no2)cc1OC | > 30 µM (inactive) |
| CC(=O)Nc1n[nH]c(-c2ccc(C)cc2)c1C | > 30 µM (inactive) |
| CCN1C(=O)/C(=C\c2cccs2)C(C(=O)OC)=C1C | > 30 µM (inactive) |
| CCn1c(SCC(=O)N/N=C/c2cccs2)nc2ccccc21 | > 30 µM (inactive) |
| COc1ccc(-c2cn3cccnc3n2)cc1NC(=O)C1CC1 | > 30 µM (inactive) |
| CCOC(=O)c1cnn(C)c1NC(=O)c1ccc(Cl)cc1Cl | > 30 µM (inactive) |
| Cn1c(SCC(=O)N/N=C/C=C/c2ccco2)nc2ccccc21 | > 30 µM (inactive) |
| Cc1ccnc(NC(=O)CCC(=O)N(CC(=O)NCc2ccccc2)Cc2ccc(F)cc2)c1 | 25 µM |
| Cc1noc(C)c1COc1ccc2ccc(=O)oc2c1 | > 30 µM (inactive) |
| COc1ccc(C(=O)C[n+]2cccc(Br)c2)cc1 | > 30 µM (inactive) |
| Cc1cccc(NC(=O)COC(=O)c2ccccn2)c1 | > 30 µM (inactive) |
| S=C(Nc1cccnc1)Nc1ccccn1 | > 30 µM (inactive) |
| Cc1ccc(C)c(/C=N/Nc2ccccn2)c1 | > 30 µM (inactive) |
| CCOC(=O)c1nn(-c2ccc(Cl)cc2)c2nc(Nc3ccccc3)cc(=O)n12 | > 30 µM (inactive) |
| CC1=C(C(=O)OC(C)C)C(c2cccs2)n2ncnc2N1 (configuration not stated) | 28.8 µM |
| CCCCN(CCCC)S(=O)(=O)c1ccc2oc(C(=O)N3CCOCC3)c(C)c2c1 | > 30 µM (inactive) |
| Cc1ccc(N(Cc2ccc([N+](=O)[O-])cc2)C(=O)c2ccco2)cc1 | > 30 µM (inactive) |
| CC1(C)CC(=O)C(C(C2=C(O)CC(C)(C)CC2=O)c2cccc(O)c2)C(=O)C1 (configuration not stated) | > 30 µM (inactive) |
| CCc1c(C)sc(NC(=O)C2CC2c2ccccc2)c1C(N)=O (configuration not stated) | > 30 µM (inactive) |

| Structure (SMILES) | AC50 |
| --- | --- |
| C/C(=N\NC(=O)CSc1nc(C)[nH]c1[N+](=O)[O-])c1ccc(F)cc1 | > 30 µM (inactive) |
| NC(=O)c1cc([N+](=O)[O-])ccc1NCc1cccc([N+](=O)[O-])c1 | 3.49 µM |
| CCOc1ccc(Nc2nc(N(C)c3ccccc3)nc(N)c2[N+](=O)[O-])cc1 | > 30 µM (inactive) |
| O=C(CSc1nnc(-c2ccc(O)cc2)o1)Nc1ccccc1 | 16.3 µM |
| COc1cccc(C2C(C(=O)OC(C)C)=C(C)Nc3ncnn32)c1 (configuration not stated) | 15.2 µM |
| CC1(C)Oc2ccc3ccc(=O)oc3c2-c2cnoc21 | > 30 µM (inactive) |
| Cc1ccc(-c2cn3cccnc3n2)cc1NC(=O)c1cccs1 | > 30 µM (inactive) |
| COc1ccc(C(=O)NCC(=O)N/N=C(C)\C=C\c2ccccc2)cc1OC | > 30 µM (inactive) |
| COc1ccc(Cl)cc1Nc1nc(N)c2ccccc2n1 | > 30 µM (inactive) |
| CN(C)c1nc2sc3c(c2c(=O)n1C)CC(C)(C)OC3 | > 30 µM (inactive) |
| O=c1[nH]nc(SCCS(=O)(=O)c2ccc(F)cc2)n1-c1ccccc1C(F)(F)F | 17.5 µM |
| CCOC(=O)C1=C(CC)OC(N)=C(C#N)C1c1ccc(NC(C)=O)cc1 (configuration not stated) | > 30 µM (inactive) |
| O=C(CSc1ccc2nnc(-c3ccccn3)n2n1)N1CCOCC1 | > 30 µM (inactive) |
| COc1ccc(CC(=O)N2CCOCC2)cc1OC | > 30 µM (inactive) |
| CS(=O)(=O)N1CCN(c2ccccc2NC(=O)c2ccc(Br)o2)CC1 | 1.94 µM |
| CC(C)NC(=O)NC(=O)CSc1nncn1C | > 30 µM (inactive) |
| COCCNc1nc(N)c([N+](=O)[O-])c(NCc2ccccc2)n1 | 7.15 µM |
| CCOC(=O)c1cc(C(=O)OCC)c2cc(Br)ccc2n1 | > 30 µM (inactive) |
| Cc1ccc(C(=O)Nc2cccc(C(=O)NC3CCCCC3)c2)cc1 | > 30 µM (inactive) |
| N#Cc1c(Nc2ccccc2)c(C=O)c[nH]c1=O | > 30 µM (inactive) |
| COC(=O)c1ccc(CSc2n[nH]c(=S)s2)o1 | > 30 µM (inactive) |
| CCn1nc(-c2ccccc2)nc2c(=O)n(C)c(=O)nc1-2 | 27.3 µM |
| Cc1nc(Nc2ccc(C(=O)O)cc2)nc(Nc2ccc(C(=O)O)cc2)c1[N+](=O)[O-] | 11.7 µM |
| CCC(CC)c1nnc(NC(=O)CCN2C(=O)c3ccccc3C2=O)s1 | > 30 µM (inactive) |
